Experiment [1] concerns phosphorylated AXL in AXL/PC9 cells. Description: Western blot of phosphorylated AXL in AXL/PC9 cells. It is filed as cell-based, human. To be noted: compound A at 100 nM, phospho-AXL antibody.
Experiment [2] deals with erlotinib-resistant HCC827 subcutaneous tumor. Kind of experiment: Anti-tumor evaluation (in vivo), erlotinib-resistant HCC827 subcutaneous cancer-bearing mouse model. To be noted: erlotinib 12.5 mg/kg/day and/or compound A 30 mg/kg/day, QD, po; for tumor volume on the starting day of administration: baseline, measured the day before start.
Excerpt: HCC827 cells (EGFR mutation-positive lung cancer cell line) were subcutaneously implanted to a dorsal part of an immunodeficient mouse (CB17/Icr-Prkdcscid/CrlCrlj, male, 4-week-old (Charles River Laboratories Japan, Inc.)) to prepare HCC827 subcutaneous cancer-bearing mice.
Experiment [3] concerns PC9 vec. cells. Kind of experiment: Proliferation inhibition (in vitro), PC9 vec. control cells, CellTiter-Glo. It is filed as cell-based. To be noted: Homo sapiens, 96 h, 4 days culture.
Description: The obtained PC9/AXL cells and PC9 vec. cells were inoculated into a 384-well plate, respectively, using an RPMI 1640 medium (Sigma). On the same day, a DMSO solution of the test compound depending on the test concentration or DMSO alone was added thereto, followed by culturing at 37° C. for 4 days in the presence of 5% CO2. Thereafter, the number of cells was measured using a cell count reagent (CellTiter-Glo™ Luminescent Cell Viability Assay (Promega)).

The values that follow come from patent publication US11925638B2, “Pharmaceutical composition comprising diamino heterocyclic carboxamide compound as active ingredient” (ASTELLAS PHARMA INC., priority 2014, dated 2024).

Molecules are shown by their SMILES. pIC50: −log10 of the molar value.

For `CCc1nc(C(N)=O)c(Nc2ccc(N3CCC(N4CCN(C)CC4)CC3)c(OC)c2)nc1NC1CCOCC1` [compound A, 6-ethyl-3-({3-methoxy-4-[4-(4-methylpiperazin-1-yl)piperidin-1-yl]phenyl}amino)-5-(tetrahydro-2H-pyran-4-ylamino)pyrazine-2-carboxamide], the AXL phosphorylation entry in experiment [1] was “completely inhibited”. In experiment [2], the “tumor volume on the starting day of administration” value is 339.2 mm^3, the tumor decreasing effect result is “did not show a tumor decreasing effect” and the “tumor volume after 12 days” value is 739.2 mm^3.
In the case of `C#Cc1cccc(Nc2ncnc3cc(OCCOC)c(OCCOC)cc23)c1` [erlotinib, reference compound], in experiment [3], the negative logarithm of the IC50 (pIC50) is 6.97. In addition, in experiment [2], the “tumor volume on the starting day of administration” value is 335.8 mm^3 and the tumor decreasing effect result is “did not show a tumor decreasing effect”.
